# Results published in patent publication US20100035941A1, “METHODS FOR INCREASING BLOOD FLOW AND/OR PROMOTING TISSUE REGENERATION” (priority 2006, published 2010).
# Values joined by “and” are separate entries in the source; they are usually repeats but may differ in a detail not shown here. Equal values may be shown once. Read-outs that look alike come from different tables or passages of the source.
# Assays:
# WBC = conditions: Phase 1 study; single dose of 80 μg/kg; cited from earlier work
# ischemic hind limb = assay: Tissue regeneration in diabetic animal ischemic model: limb blood flow restoration, LASER Doppler; format: in vivo, male nude Hfh11 mice; conditions: diabetic mice
# Procedure: Three to four weeks after injection of STZ the left hind limb was made ischemic by ligation of the iliac artery and removal of a 0.5-1 cm segment distal to the ligation.
# One group of additional mice (n=11) was injected intramuscularly into the ischemic hindlimb with human non-diabetic-derived unmobilized CD34+ (unCD34+) peripheral blood mononuclear cells (PBMCs), two to four hours after surgery. […] Untreated mice served as controls (n=10).
# Limb blood flow restoration was analyzed immediately before and after surgery and at various times thereafter in the entire limb distal to the ligation using LASER Doppler analysis.
# CFU-GM progenitor cells = conditions: donors' mean, s.c. 80 μg/kg
# Procedure: (§1) All progenitor cell results are based on the scoring of 3 culture plates per assay per point.
# (§2) For the progenitor cell numbers and cycling status, the numbers of CFU-GM, BFU-E and CFU-GEMM in methylcellulose cultures by stimulation of the cells with 1 Unit (U)/ml recombinant human (rhu) erythropoietin, 100 U/ml rhu granulocyte-macrophage colony stimulating factor (GM-CSF), 100 U/ml rhu interleukin-3 (IL-3) and 50 ng/ml rhu steel factor (SLF=stem cell factor (SCF)). The CFU-GM were also evaluated in agar cultures stimulated with 100 U/ml rhu GM-CSF and 50 ng/ml rhu SLF. For both types of assays, colonies were scored after 14 day incubation in a humidified atmosphere with 5% CO2 and lowered (5%) O2 tension. Cell cycling status of progenitors was measured using a high specific activity tritiated thymidine kill technique as previously described (Broxmeyer, H. E., et al., Exp. Hematol. (1989) 17:455-459).
# [1] = test system: CFU-GM, BFU-E and CFU-GEMM progenitor cells; conditions: s.c. 80 μg/kg; for mean fold change vs T=0, methylcellulose culture BFU-E, MEAN / mean fold change vs T=0, methylcellulose culture CFU-GEMM, MEAN / mean fold change vs T=0, methylcellulose culture CFU-GM, MEAN / methylcellulose culture BFU-E, % CHG / methylcellulose culture CFU-GEMM, % CHG / methylcellulose culture CFU-GM, % CHG: 5 donors
# Procedure: as §1, §2
# [2] = test system: circulating CD34+ progenitor/stem cells; conditions: Phase 1 study; single dose of 80 μg/kg; 6 hour time point; cited from earlier work
# white blood cells = conditions: single s.c. 80 μg/kg
# Procedure: (§3) Five healthy human volunteers having initial white blood cell counts of 4,500-7,500 cells/mm^3 were used in the study. […] Blood samples were obtained via catheter prior to the dose, and at various times up to 24 hours after dosing.
# (§4) The blood samples were evaluated for total white blood cells, CD34 positive progenitor cells (via FACS analysis) as a percentage of total white blood cells, as well as the absolute numbers per mL and cycling status of granulocyte macrophage (CFU-GM), erythroid (BFU-E), and multipotential (CFU-GEMM) progenitor cells.
# [3] = test system: CD34 positive progenitor cells; conditions: human volunteers; single s.c. 80 μg/kg
# Procedure: as §3, §4
# [4] = test system: granulocyte macrophage (CFU-GM), erythroid (BFU-E), and multipotential (CFU-GEMM) progenitor cells; conditions: mice; for Absolute Number Progenitors Per ML Blood, Methylcellulose Culture, BFU-E / Absolute Number Progenitors Per ML Blood, Methylcellulose Culture, CFU-GEMM / Absolute Number Progenitors Per ML Blood, Methylcellulose Culture, CFU-GM: 1 hour post administration; for Absolute Progenitors Per ML Blood, Methylcellulose Culture, BFU-E / Absolute Progenitors Per ML Blood, Methylcellulose Culture, CFU-GEMM / Absolute Progenitors Per ML Blood, Methylcellulose Culture, CFU-GM: single s.c. injection of 5 mg/Kg
# Procedure: Progenitors were stimulated to form colonies in vitro with the combination of 1U/ml rhu Epo, 50 ng/ml rhu SLF, 5% Vol/Vol pokeweed mitogen mouse spleen cell conditioned medium (PWMSCM), and 0.1 mM hemin. Plates were scored 7 days after incubation.
# [5] = ischemic hind limb, 5 mg/kg intraperitoneally on days 0 and 2
# [6] = single s.c. injection 2.5 mg/kg
structure (smiles),measurement,setting,value
"c1cc(CN2CCCNCCNCCCNCC2)ccc1CN1CCCNCCNCCCNCC1 [AMD3100, 1,1′-[1,4-phenylene-bis(methylene)]-bis-1,4,8,11-tetraazacyclotetradecane]",WBC count,WBC,"17,000 /μl"
same,time at which drug induced improvement was observed,ischemic hind limb; [5],two
same,time by which blood flow had reached its maximum,ischemic hind limb; [5],seven
same,"blood flow maintained, mean % of the initial flow (plateau)","ischemic hind limb; ischemic hind limb, 5 mg/kg intraperitoneally on the day of and two days after surgery, mean flow d8-d24",74.6±2.8%
same,overall effect of systemic therapy on blood flow restoration,"ischemic hind limb; ischemic limb, systemic (intraperitoneal) treatment","accelerated blood flow restoration, but did not increase it"
same,"agar culture CFU-GM, % CHG",CFU-GM progenitor cells; T = 1 hour,180.8%
same,"mean fold change vs T=0, agar culture CFU-GM, MEAN",CFU-GM progenitor cells; T = 1 hour,2.81
same,"agar culture CFU-GM, % CHG",CFU-GM progenitor cells; T = 3 hours,754.1%
same,"mean fold change vs T=0, agar culture CFU-GM, MEAN",CFU-GM progenitor cells; T = 3 hours,8.54
same,"agar culture CFU-GM, % CHG",CFU-GM progenitor cells; T = 6 hours,1692.8%
same,"mean fold change vs T=0, agar culture CFU-GM, MEAN",CFU-GM progenitor cells; T = 6 hours,17.93
same,"agar culture CFU-GM, % CHG",CFU-GM progenitor cells; T = 9 hours,924.9%
same,"mean fold change vs T=0, agar culture CFU-GM, MEAN",CFU-GM progenitor cells; T = 9 hours,10.25
same,"agar culture CFU-GM, % CHG",CFU-GM progenitor cells; T = 24 hours,108.3%
same,"mean fold change vs T=0, agar culture CFU-GM, MEAN",CFU-GM progenitor cells; T = 24 hours,2.08
same,"mean fold change vs T=0, methylcellulose culture BFU-E, MEAN",[1]; T = 1 hour,1.99
same,"mean fold change vs T=0, methylcellulose culture CFU-GEMM, MEAN",[1]; T = 1 hour,2.32
same,"mean fold change vs T=0, methylcellulose culture CFU-GM, MEAN",[1]; T = 1 hour,4.77
same,"methylcellulose culture BFU-E, % CHG",[1]; T = 1 hour,98.9%
same,"methylcellulose culture CFU-GEMM, % CHG",[1]; T = 1 hour,131.8%
same,"methylcellulose culture CFU-GM, % CHG",[1]; T = 1 hour,376.7%
same,"mean fold change vs T=0, methylcellulose culture BFU-E, MEAN",[1]; T = 3 hours,3.21
same,"mean fold change vs T=0, methylcellulose culture CFU-GEMM, MEAN",[1]; T = 3 hours,4.33
same,"mean fold change vs T=0, methylcellulose culture CFU-GM, MEAN",[1]; T = 3 hours,13.66
same,"methylcellulose culture BFU-E, % CHG",[1]; T = 3 hours,221.3%
same,"methylcellulose culture CFU-GEMM, % CHG",[1]; T = 3 hours,332.5%
same,"methylcellulose culture CFU-GM, % CHG",[1]; T = 3 hours,1266.5%
same,"mean fold change vs T=0, methylcellulose culture BFU-E, MEAN",[1]; T = 6 hours,6.01
same,"mean fold change vs T=0, methylcellulose culture CFU-GEMM, MEAN",[1]; T = 6 hours,10.07
same,"mean fold change vs T=0, methylcellulose culture CFU-GM, MEAN",[1]; T = 6 hours,21.71
same,"methylcellulose culture BFU-E, % CHG",[1]; T = 6 hours,500.5%
same,"methylcellulose culture CFU-GEMM, % CHG",[1]; T = 6 hours,907.2%
same,"methylcellulose culture CFU-GM, % CHG",[1]; T = 6 hours,2070.6%
same,"mean fold change vs T=0, methylcellulose culture BFU-E, MEAN",[1]; T = 9 hours,4.34
same,"mean fold change vs T=0, methylcellulose culture CFU-GEMM, MEAN",[1]; T = 9 hours,5.25
same,"mean fold change vs T=0, methylcellulose culture CFU-GM, MEAN",[1]; T = 9 hours,10.47
same,"methylcellulose culture BFU-E, % CHG",[1]; T = 9 hours,334.4%
same,"methylcellulose culture CFU-GEMM, % CHG",[1]; T = 9 hours,425.4%
same,"methylcellulose culture CFU-GM, % CHG",[1]; T = 9 hours,947.3%
same,"mean fold change vs T=0, methylcellulose culture BFU-E, MEAN",[1]; T = 24 hours,1.26
same,"mean fold change vs T=0, methylcellulose culture CFU-GEMM, MEAN",[1]; T = 24 hours,1.53
same,"mean fold change vs T=0, methylcellulose culture CFU-GM, MEAN",[1]; T = 24 hours,1.56
same,"methylcellulose culture BFU-E, % CHG",[1]; T = 24 hours,26.3%
same,"methylcellulose culture CFU-GEMM, % CHG",[1]; T = 24 hours,53.2%
same,"methylcellulose culture CFU-GM, % CHG",[1]; T = 24 hours,55.5%
same,time after injection of maximal fold increases in circulating levels of progenitor cells,[1]; all five human donors,6 h
same,peak increase in circulating CD34+ progenitor/stem cells,[2],6 fold
same,time post-administration at which elevation of the white blood cell count maximized,white blood cells; human volunteers,6 h
same,mobilization of white blood cells in individual volunteers,"white blood cells; 2 Hr, volunteers P1-P5",12.4 × 10^3 WBC's and 21.4 × 10^3 WBC's and 13.5 × 10^3 WBC's
same,time post-administration at which elevation of CD34 positive progenitor cells maximized,[3],6 h
same,"Fold Change Compared to Time 0, Progenitors, Methylcellulose Culture, BFU-E",[4]; Time 2′,2.07
same,"Fold Change Compared to Time 0, Progenitors, Methylcellulose Culture, CFU-GEMM",[4]; Time 2′,1.85
same,"Fold Change Compared to Time 0, Progenitors, Methylcellulose Culture, GM",[4]; Time 2′,2.86
same,"Fold Change Compared to Time 0, Progenitors, Methylcellulose Culture, BFU-E",[4]; Time 15″,2.72
same,"Fold Change Compared to Time 0, Progenitors, Methylcellulose Culture, CFU-GEMM",[4]; Time 15″,3.51
same,"Fold Change Compared to Time 0, Progenitors, Methylcellulose Culture, GM",[4]; Time 15″,2.73
same,"Fold Change Compared to Time 0, Progenitors, Methylcellulose Culture, BFU-E",[4]; Time 30″,4.24
same,"Fold Change Compared to Time 0, Progenitors, Methylcellulose Culture, CFU-GEMM",[4]; Time 30″,4.41
same,"Fold Change Compared to Time 0, Progenitors, Methylcellulose Culture, GM",[4]; Time 30″,6.23
same,"Absolute Number Progenitors Per ML Blood, Methylcellulose Culture, BFU-E",[4]; single s.c. injection 1 mg/kg,62 Per ML Blood
same,"Absolute Number Progenitors Per ML Blood, Methylcellulose Culture, CFU-GEMM",[4]; single s.c. injection 1 mg/kg,27.1 Per ML Blood
same,"Absolute Number Progenitors Per ML Blood, Methylcellulose Culture, CFU-GM",[4]; single s.c. injection 1 mg/kg,424 Per ML Blood
same,"Absolute Number Progenitors Per ML Blood, Methylcellulose Culture, BFU-E",[4]; [6],98.9 Per ML Blood
same,"Absolute Number Progenitors Per ML Blood, Methylcellulose Culture, CFU-GEMM",[4]; [6],70.6 Per ML Blood
same,"Absolute Number Progenitors Per ML Blood, Methylcellulose Culture, CFU-GM",[4]; [6],687.6 Per ML Blood
same,"Absolute Number Progenitors Per ML Blood, Methylcellulose Culture, BFU-E",[4]; single s.c. injection 5 mg/kg,92.8 Per ML Blood
same,"Absolute Number Progenitors Per ML Blood, Methylcellulose Culture, CFU-GEMM",[4]; single s.c. injection 5 mg/kg,69.5 Per ML Blood
same,"Absolute Number Progenitors Per ML Blood, Methylcellulose Culture, CFU-GM",[4]; single s.c. injection 5 mg/kg,608.4 Per ML Blood
same,"Absolute Number Progenitors Per ML Blood, Methylcellulose Culture, BFU-E",[4]; single s.c. injection 10 mg/kg,120.5 Per ML Blood
same,"Absolute Number Progenitors Per ML Blood, Methylcellulose Culture, CFU-GEMM",[4]; single s.c. injection 10 mg/kg,79.8 Per ML Blood
same,"Absolute Number Progenitors Per ML Blood, Methylcellulose Culture, CFU-GM",[4]; single s.c. injection 10 mg/kg,825.6 Per ML Blood
same,"Absolute Progenitors Per ML Blood, Methylcellulose Culture, BFU-E",[4]; 15″,134.5 Per ML Blood
same,"Absolute Progenitors Per ML Blood, Methylcellulose Culture, CFU-GEMM",[4]; 15″,90.4 Per ML Blood
same,"Absolute Progenitors Per ML Blood, Methylcellulose Culture, CFU-GM",[4]; 15″,791.6 Per ML Blood
same,"Absolute Progenitors Per ML Blood, Methylcellulose Culture, BFU-E",[4]; 30″,209.3 Per ML Blood
same,"Absolute Progenitors Per ML Blood, Methylcellulose Culture, CFU-GEMM",[4]; 30″,113.5 Per ML Blood
same,"Absolute Progenitors Per ML Blood, Methylcellulose Culture, CFU-GM",[4]; 30″,1805.5 Per ML Blood
same,"Absolute Progenitors Per ML Blood, Methylcellulose Culture, BFU-E",[4]; 120″,102.3 Per ML Blood
same,"Absolute Progenitors Per ML Blood, Methylcellulose Culture, CFU-GEMM",[4]; 120″,47.6 Per ML Blood
same,"Absolute Progenitors Per ML Blood, Methylcellulose Culture, CFU-GM",[4]; 120″,528.7 Per ML Blood
